What was measured:
[1] = MTT cytotoxicity assay (24 h), MRC-5; format: cell-based; conditions: human, MRC-5 embryonal lung fibroblast cells, 24 h incubation
Method: (§1) MRC-5 human embryonal lung fibroblast cell lines (ATCC CCL-171) were purchased from LGC Promochem, Teddington, UK. The cell line was cultured in Eagle’s Minimal Essential Medium (EMEM, containing 4.5 g/L glucose) supplemented with a non-essential amino acid mixture, a selection of vitamins and 10% heat-inactivated foetal bovine serum. The cell lines were incubated at 37 °C, in a 5% CO2, 95% air atmosphere.
(§2) MRC-5 non-cancerous human embryonic lung fibroblast and human colonic adenocarcinoma cell lines (doxorubicin-sensitive Colo 205 and multidrug-resistant Colo 320 colonic adenocarcinoma cells) were used to determine the effect of compounds on cell proliferation and growth. The effects of increasing concentrations of compounds on cell proliferation and growth were tested in 96-well flat-bottomed microtitre plates. The compounds were diluted in a volume of 100 μL of medium.
(§3) The adherent human embryonal lung fibroblast cells were seeded overnight and cultured in 96-well flat-bottomed microtitre plates prior to the assay, using EMEM supplemented with 10% heat-inactivated foetal bovine serum. The density of the cells was adjusted to 6 × 10^3 cells (antiproliferative assay) or 1 × 10^4 cells (cytotoxicity assay) in 100 μL per well, the cells were seeded for 24 h at 37 °C, 5% CO2, then the medium was removed from the plates containing the cells, and the dilutions of compounds (200 µL) previously made in a separate plate were added to the cells in.
(§4) The culture plates were incubated at 37 °C for 72 h (antiproliferative test) or 24 h (cytotoxicity test); at the end of the incubation period, 20 μL of MTT (thiazolyl blue tetrazolium bromide, Sigma, St. Louis, MO, USA) solution (from a stock solution of 5 mg/mL) were added to each well. After incubation at 37 °C for 4 h, 100 μL of sodium dodecyl sulphate (SDS) (Sigma) solution (10% in 0.01 M HCI) were added to each well and the plates were further incubated at 37 °C overnight. Cell growth was determined by measuring the optical density (OD) at 540/630 nm with Multiscan EX ELISA reader (Thermo Labsystems, Cheshire, WA, USA). Inhibition of the cell growth was determined according to the formula below: Inhibition %=100−[OD sample−OD medium control/OD cell control−OD medium control]×100
(§5) Results are expressed in terms of IC50, defined as the inhibitory dose that reduces the growth of the cells exposed to the tested compounds by 50%.

[2] = tested on: multidrug-resistant Colo 320 colonic adenocarcinoma cells; experiment: MTT antiproliferative assay (72 h), Colo 320; format: cell-based, human; conditions: for IC50: MTT, 72 h incubation, read-out: Antiproliferative IC50, Colo320; for selectivity index (SI), antiproliferative: Colo320 versus MRC-5, cell proliferation inhibition
Method: (§6) Human colonic adenocarcinoma cell lines (Colo 205 doxorubicin-sensitive and Colo 320/MDR-LRP multidrug-resistant expressing ABCB1 (MDR1)-LRP), ATCC-CCL-220.1 (Colo 320) and CCL-222 (Colo 205) were purchased from LGC Promochem, Teddington, UK. The cells were cultured in RPMI 1640 medium supplemented with 10% heat-inactivated foetal bovine serum, 2 mM L-glutamine, 1 mM Na-pyruvate and 100 mM Hepes. The cell lines were incubated at 37 °C, in a 5% CO2, 95% air atmosphere. The semi-adherent human colon cancer cells were detached with Trypsin-Versene (EDTA) solution for 5 min at 37 °C.
as §2
(§7) In case of the colonic adenocarcinoma cells, the 2-fold serial dilutions of compounds were prepared in 100 μL of RPMI 1640, horizontally. The semi-adherent colonic adenocarcinoma cells were treated with Trypsin-Versene (EDTA) solution. The density of the cells was adjusted to 6 × 10^3 cells (antiproliferative assay) or 1 × 10^4 cells (cytotoxicity assay) in 100 μL of RPMI 1640 medium, and was added to each well, with the exception of the medium control wells. The final volume of the wells containing compounds and cells was 200 μL.
as §4, §5

[3] = tested on: multidrug-resistant Colo 320 colonic adenocarcinoma cells expressing the ABCB1 transporter; experiment: Checkerboard combination assay with doxorubicin; format: cell-based, human; conditions: for drug interaction with doxorubicin: Colo320, at certain concentrations
Method: A checkerboard microplate method was applied to study the effect of drug interactions between the compounds and doxorubicin. The assay was carried out using multidrug-resistant Colo 320 colonic adenocarcinoma cells expressing the ABCB1 transporter. The final concentration of the chemotherapeutic agent doxorubicin used in the combination experiment was chosen in accordance with their antiproliferative activity previously determined. The dilutions of the chemotherapeutic drug were made in a horizontal direction in 100 μL, and the dilutions of the compounds vertically in the microtitre plate in 50 μL volume. The cells were re-suspended in culture medium and distributed into each well in 50 μL containing 6 × 10^3 cells each. The plates were incubated for 72 h at 37 °C in 5% CO2 atmosphere. The cell growth rate was determined after MTT staining. At the end of the incubation period, 20 μL of MTT (thiazolyl blue tetrazolium bromide, Sigma) solution (from a stock solution of 5 mg/mL) was added to each well. After incubation at 37 °C for 4 h, 100 μL of SDS (Sigma-Aldrich, St. Louis, MO, USA) solution (10% in 0.01 M HCl; Merck, Darmstadt, Germany) were added to each well and the plates were further incubated at 37 °C overnight. OD was measured at 540/630 nm with Multiscan EX ELISA reader (Thermo Labsystems, Cheshire, WA). Combination index (CI) values at 50% of the growth inhibition dose (ED50), were determined using CompuSyn software (ComboSyn, Inc., Paramus, NJ) to plot four to five data points to each ratio.

[4] = tested on: doxorubicin-sensitive Colo 205 colonic adenocarcinoma cells; experiment: MTT cytotoxicity assay (24 h), Colo 205; format: cell-based, human; conditions: Homo sapiens, COLO 205; MTT, 24 h incubation; read-out: Cytotoxicity IC50, Colo205
Method: as §6, §2, §7, §4, §5

[5] = tested on: multidrug-resistant Colo 320 colonic adenocarcinoma cells; experiment: MTT cytotoxicity assay (24 h), Colo 320; format: cell-based; conditions: Homo sapiens, COLO 320, 24 h, 24 h incubation, read-out: Cytotoxicity IC50, Colo320
Method: as §6, §2, §7, §4, §5

[6] = tested on: MRC-5 human embryonal lung fibroblast cell line; experiment: MTT antiproliferative assay (72 h), MRC-5; format: cell-based
Method: as §1, §2, §3, §4, §5

[7] = tested on: doxorubicin-sensitive Colo 205 colonic adenocarcinoma cells; experiment: MTT antiproliferative assay (72 h), Colo 205; format: cell-based, human; conditions: read-out: Antiproliferative IC50, Colo205
Method: as §6, §2, §7, §4, §5

MCF-7 mp53 cells = tested on: MCF-7 mp53 cells; set-up: method as in Sturgeon et al. [2005]; conditions: ref Sturgeon et al. [2005]; cited from earlier work
NF-κB = tested on: NF-κB; set-up: method as in Sotillo et al. [2017]; conditions: ref Sotillo et al. [2017]; cited from earlier work
[8] = tested on: breast cancer cell lines (MCF-7, JIMT-1 and HCC1937); set-up: method as in Sotillo et al. [2017]; conditions: ref Sotillo et al. [2017]; cited from earlier work
[9] = Homo sapiens, MRC5, 72 h incubation
[10] = Homo sapiens, COLO 205, 72 h incubation

| IC50 ([2]; Homo sapiens, COLO 320, 72 h) [µM] | IC50 [7, 10] [µM] | IC50 [2] [µM] | Structure (SMILES) | IC50 at 24 h [1] [µM] | IC50 [4] [µM] | IC50 [5] [µM] | IC50 [6, 9] [µM] | TNF-α-induced translocation of NF-κB (NF-κB) | cytotoxicity to breast cancer cell lines [8] | also measured |
| --- | --- | --- | --- | --- | --- | --- | --- | --- | --- | --- |
|  | > 100 | > 100 | C=C1C(=O)O[C@@H]2[C@H]1CCC(C)=C(CCC(=O)OC)[C@@]2(C)O [Compound 5, 1′-noraltamisin] | > 100 | > 100 | > 100 | > 100 |  |  | IC50 ([2]; listed as 1′-Noraltamisin): 8.78 µM; Type of interaction ([3]; starting concentration 30 µM, ratio 3.48:1): Antagonism; Type of interaction ([3]; starting concentration 30 µM, ratio 6.69:1): Additive effect; Type of interaction ([3]; starting concentration 30 µM, ratio 13.92:1): Slight synergism; Type of interaction ([3]; starting concentration 30 µM, ratio 27.84:1): Additive effect; Type of interaction ([3]; starting concentration 30 µM, ratio 55.68:1): Moderate antagonism; Type of interaction ([3]; starting concentration 30 µM, ratio 111.36:1): Additive effect |
|  |  | 5.29 ± 0.15 | C=C1C(=O)O[C@@H]2[C@H]1CCC(C)=C1CCC(=O)O[C@]12C [Compound 6, psilostachyin B] |  |  |  |  |  |  | selectivity index (SI), antiproliferative [2]: 4.98; Type of interaction ([3]; starting concentration 100 µM, ratio 11.6:1): Syn.; Type of interaction ([3]; starting concentration 100 µM, ratio 23.2:1): Syn.; Type of interaction ([3]; starting concentration 100 µM, ratio 46.4:1): Antagonism; Type of interaction ([3]; starting concentration 100 µM, ratio 92.8:1): Slight antagonism; Type of interaction ([3]; starting concentration 100 µM, ratio 185.6:1): Moderate ant.; Type of interaction ([3]; starting concentration 100 µM, ratio 371.2:1): Antagonism; IC50 ([6]; 72 h incubation): 26.4 ± 0.81 µM; IC50 ([7]; 72 h incubation): 11 ± 0.56 µM |
| 34.5 ± 2.07 | 17 ± 1.99 |  | C=C1C(=O)O[C@@H]2[C@H]1CC[C@H](C)[C@H](CCC(=O)OC)[C@@]2(C)O [Compound 7, 1,10-dihydro-1′-noraltamisin] | > 100 | 53.6 ± 0.87 | 86.6 ± 1.06 | 39.8 ± 0.53 |  |  | drug interaction with doxorubicin [3]: synergistic effects; Type of interaction ([3]; starting concentration 150 µM, ratio 17.42:1): Very strong syn.; Type of interaction ([3]; starting concentration 150 µM, ratio 34.84:1): Moderate syn.; Type of interaction ([3]; starting concentration 150 µM, ratio 69.68:1): Moderate syn.; Type of interaction ([3]; starting concentration 150 µM, ratio 139.36:1): Moderate syn.; Type of interaction ([3]; starting concentration 150 µM, ratio 278.72:1): Moderate syn.; Type of interaction ([3]; starting concentration 150 µM, ratio 557.44:1): Syn. |
| 50.4 ± 2.98 | 66.8 ± 0.96 |  | COc1c(O)cc2oc(-c3ccc(O)c(O)c3)c(OC)c(=O)c2c1O [Compound 8, axillarin] | > 100 | > 100 | > 100 | 4.03 ± 0.56 |  |  | drug interaction with doxorubicin [3]: synergistic effects |
| 0.14 ± 0.03 | 0.24 ± 0.03 |  | COc1cccc2c1C(=O)c1c(O)c3c(c(O)c1C2=O)C[C@@](O)(C(=O)CO)C[C@@H]3O[C@H]1C[C@H](N)[C@H](O)[C@H](C)O1 [Doxorubicin, doxorubicin, reference compound] |  |  |  | 0.53 ± 0.06 |  |  |  |

More lines, now with the values behind:

| Structure (SMILES) | IC50 ([2]; Homo sapiens, COLO 320, 72 h) [µM] | IC50 [7, 10] [µM] | IC50 [2] [µM] | IC50 at 24 h [1] [µM] | IC50 [4] [µM] | IC50 [5] [µM] | IC50 [6, 9] [µM] | TNF-α-induced translocation of NF-κB (NF-κB) | cytotoxicity to breast cancer cell lines [8] | also measured |
| --- | --- | --- | --- | --- | --- | --- | --- | --- | --- | --- |
| C=C1C(=O)O[C@@H]2C[C@H](C)[C@]3(O)CCC(=O)[C@@]3(C)C[C@H]12 [Compound 3, peruvin] | 21.2 ± 0.72 | 26.4 ± 1.12 |  | 11.9 ± 1.45 | 64.4 ± 1.78 | 82.4 ± 1.17 | 26.4 ± 1.3 |  |  | Type of interaction ([3]; starting concentration 65 µM, ratio 7.54:1): Moderate antagonism; Type of interaction ([3]; starting concentration 65 µM, ratio 15.08:1): Antagonism; Type of interaction ([3]; starting concentration 65 µM, ratio 30.16:1): Antagonism; Type of interaction ([3]; starting concentration 65 µM, ratio 60.32.1): Moderate antagonism; Type of interaction ([3]; starting concentration 65 µM, ratio 120.64:1): Antagonism; Type of interaction ([3]; starting concentration 65 µM, ratio 241.28:1): Additive effect |
| C=C1C(=O)O[C@@H]2[C@H]1CC[C@H](C)[C@]1(CCC(=O)O1)[C@@]2(C)O [Compound 4, psilostachyin] | 5.29 | 14.4 ± 1 | 8.78 ± 0.22 | 41.8 ± 2.43 | 42.4 ± 2.37 |  | 26.7 ± 0.51 |  |  | selectivity index (SI), antiproliferative [2]: 3.04; Type of interaction ([3]; starting concentration 25 µM, ratio 2.9:1): Additive effect; Type of interaction ([3]; starting concentration 25 µM, ratio 5.8:1): Moderate antagonism; Type of interaction ([3]; starting concentration 25 µM, ratio 11.6:1): Synergism; Type of interaction ([3]; starting concentration 25 µM, ratio 23.2:1): Antagonism; Type of interaction ([3]; starting concentration 25 µM, ratio 46.4:1): Moderate antagonism; Type of interaction ([3]; starting concentration 25 µM, ratio 92.2:1): Slight antagonism; effect on mitosis of MCF-7 mp53 cells (G2 checkpoint inhibitors) (MCF-7 mp53 cells): blocked MCF-7 mp53 cells in mitosis |
| C=C1C(=O)O[C@@H]2[C@H]1CC[C@H](C)[C@@H]1C=CC(=O)[C@@]21C [ambrosin] |  |  |  |  |  |  |  | inhibited | cytotoxic |  |
| C=C1C(=O)O[C@@H]2[C@H]1CC[C@H](C)[C@]1(O)CCC(=O)[C@@]21C [coronopilin] |  |  |  |  |  |  |  | inhibited | cytotoxic |  |
| C=C1C(=O)O[C@@H]2[C@H]1CC[C@H](C)[C@@H]1CCC(=O)[C@@]21C [damsin] |  |  |  |  |  |  |  | inhibited | cytotoxic |  |

Source: PMC9377253, “Antiproliferative and cytotoxic effects of sesquiterpene lactones isolated from Ambrosia artemisiifolia on human adenocarcinoma and normal cell lines” (Pharmaceutical Biology, 2022)
